{"source": "PubChem BioAssay (NCI)", "test_in_all_cases": "inhibition of tumour cell growth, NCI panel, 48 h", "key": {"U251 CNS": {"system": "U251 CNS"}, "COLO 205 colon": {"system": "COLO 205 colon"}, "ACHN renal": {"system": "ACHN renal"}, "NCI-H23 lung": {"system": "NCI-H23 lung"}, "SK-MEL-5 melanoma": {"system": "SK-MEL-5 melanoma"}, "TK-10 renal": {"system": "TK-10 renal"}, "OVCAR-5 ovarian": {"system": "OVCAR-5 ovarian"}, "NCI-H460 lung": {"system": "NCI-H460 lung"}, "RXF 393 renal": {"system": "RXF 393 renal"}, "A498 renal": {"system": "A498 renal"}, "HCC-2998 colon": {"system": "HCC-2998 colon"}, "SF-295 CNS": {"system": "SF-295 CNS"}, "OVCAR-8 ovarian": {"system": "OVCAR-8 ovarian"}, "SK-MEL-28 melanoma": {"system": "SK-MEL-28 melanoma"}, "OVCAR-4 ovarian": {"system": "OVCAR-4 ovarian"}, "A549 NSCLC": {"system": "A549 NSCLC"}, "M14 melanoma": {"system": "M14 melanoma"}, "NCI-H226 lung": {"system": "NCI-H226 lung"}, "SK-OV-3 ovarian": {"system": "SK-OV-3 ovarian"}, "KM12 colon": {"system": "KM12 colon"}, "MCF7 breast": {"system": "MCF7 breast"}, "SR leukemia": {"system": "SR leukemia"}, "K-562 leukemia": {"system": "K-562 leukemia"}, "T-47D breast": {"system": "T-47D breast"}, "DU-145 prostate": {"system": "DU-145 prostate"}, "PC-3 prostate": {"system": "PC-3 prostate"}, "UO-31 renal": {"system": "UO-31 renal"}, "HS 578T breast": {"system": "HS 578T breast"}, "LOX IMVI melanoma": {"system": "LOX IMVI melanoma"}}, "note": "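Growth conditions: 96-well plates. Treatment: test compound, 48 hours, 5 concentrations. Analysis: linear interpolation between bracketing concentrations; unreached endpoints set to highest concentration. GI50 = concentration required for 50% inhibition of growth. TGI: concentration producing complete growth inhibition.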"}
{"smiles": "COc1ccc(C2CC(c3cc(Cl)c(C)cc3O)=NN2c2ccc(S(N)(=O)=O)cc2)cc1OC", "note": "(stereo not drawn)", "values": [{"measurement": "GI50", "setting": "U251 CNS", "value": 3.71, "unit": "µM"}, {"measurement": "TGI", "setting": "U251 CNS", "value": 14, "unit": "µM"}, {"measurement": "GI50", "setting": "COLO 205 colon", "value": 1.93, "unit": "µM"}, {"measurement": "TGI", "setting": "COLO 205 colon", "value": 3.41, "unit": "µM"}, {"measurement": "GI50", "setting": "ACHN renal", "value": 3.15, "unit": "µM"}, {"measurement": "TGI", "setting": "ACHN renal", "value": 12.2, "unit": "µM"}, {"measurement": "GI50", "setting": "NCI-H23 lung", "value": 3.11, "unit": "µM"}, {"measurement": "TGI", "setting": "NCI-H23 lung", "value": 13.6, "unit": "µM"}, {"measurement": "GI50", "setting": "SK-MEL-5 melanoma", "value": 4.28, "unit": "µM"}, {"measurement": "TGI", "setting": "SK-MEL-5 melanoma", "value": 15.2, "unit": "µM"}, {"measurement": "GI50", "setting": "TK-10 renal", "value": 3.97, "unit": "µM"}, {"measurement": "TGI", "setting": "TK-10 renal", "value": 18.4, "unit": "µM"}, {"measurement": "GI50", "setting": "OVCAR-5 ovarian", "value": 2.25, "unit": "µM"}, {"measurement": "TGI", "setting": "OVCAR-5 ovarian", "value": 6.36, "unit": "µM"}, {"measurement": "GI50", "setting": "NCI-H460 lung", "value": 2.5, "unit": "µM"}, {"measurement": "TGI", "setting": "NCI-H460 lung", "value": 5.85, "unit": "µM"}, {"measurement": "GI50", "setting": "RXF 393 renal", "value": 2.88, "unit": "µM"}, {"measurement": "TGI", "setting": "RXF 393 renal", "value": 7.52, "unit": "µM"}, {"measurement": "GI50", "setting": "A498 renal", "value": 3.98, "unit": "µM"}, {"measurement": "TGI", "setting": "A498 renal", "value": 24.7, "unit": "µM"}, {"measurement": "GI50", "setting": "HCC-2998 colon", "value": 2.72, "unit": "µM"}, {"measurement": "TGI", "setting": "HCC-2998 colon", "value": 7.25, "unit": "µM"}, {"measurement": "GI50", "setting": "SF-295 CNS", "value": 2.7, "unit": "µM"}, {"measurement": "TGI", "setting": "SF-295 CNS", "value": 6.24, "unit": "µM"}, {"measurement": "GI50", "setting": "OVCAR-8 ovarian", "value": 3.39, "unit": "µM"}, {"measurement": "TGI", "setting": "OVCAR-8 ovarian", "value": 17.9, "unit": "µM"}, {"measurement": "GI50", "setting": "SK-MEL-28 melanoma", "value": 4.29, "unit": "µM"}, {"measurement": "TGI", "setting": "SK-MEL-28 melanoma", "value": 17.7, "unit": "µM"}, {"measurement": "GI50", "setting": "OVCAR-4 ovarian", "value": 4.18, "unit": "µM"}, {"measurement": "TGI", "setting": "OVCAR-4 ovarian", "value": "> 100", "unit": "µM"}, {"measurement": "GI50", "setting": "A549 NSCLC", "value": 3.54, "unit": "µM"}, {"measurement": "TGI", "setting": "A549 NSCLC", "value": 19.7, "unit": "µM"}, {"measurement": "GI50", "setting": "M14 melanoma", "value": 2.61, "unit": "µM"}, {"measurement": "TGI", "setting": "M14 melanoma", "value": 7.2, "unit": "µM"}, {"measurement": "GI50", "setting": "NCI-H226 lung", "value": 5.62, "unit": "µM"}, {"measurement": "TGI", "setting": "NCI-H226 lung", "value": 23.1, "unit": "µM"}, {"measurement": "GI50", "setting": "SK-OV-3 ovarian", "value": 4.51, "unit": "µM"}, {"measurement": "TGI", "setting": "SK-OV-3 ovarian", "value": 38.3, "unit": "µM"}, {"measurement": "GI50", "setting": "KM12 colon", "value": 3.07, "unit": "µM"}, {"measurement": "TGI", "setting": "KM12 colon", "value": 8.77, "unit": "µM"}, {"measurement": "GI50", "setting": "MCF7 breast", "value": 3.07, "unit": "µM"}, {"measurement": "TGI", "setting": "MCF7 breast", "value": 13.6, "unit": "µM"}, {"measurement": "GI50", "setting": "SR leukemia", "value": 2.82, "unit": "µM"}, {"measurement": "TGI", "setting": "SR leukemia", "value": "> 100", "unit": "µM"}, {"measurement": "GI50", "setting": "K-562 leukemia", "value": 3.18, "unit": "µM"}, {"measurement": "TGI", "setting": "K-562 leukemia", "value": "> 100", "unit": "µM"}, {"measurement": "GI50", "setting": "T-47D breast", "value": 3.1, "unit": "µM"}, {"measurement": "TGI", "setting": "T-47D breast", "value": 13.3, "unit": "µM"}, {"measurement": "GI50", "setting": "DU-145 prostate", "value": 4.49, "unit": "µM"}, {"measurement": "TGI", "setting": "DU-145 prostate", "value": 21.7, "unit": "µM"}, {"measurement": "GI50", "setting": "PC-3 prostate", "value": 2.61, "unit": "µM"}, {"measurement": "TGI", "setting": "PC-3 prostate", "value": 13.7, "unit": "µM"}, {"measurement": "GI50", "setting": "UO-31 renal", "value": 3.3, "unit": "µM"}, {"measurement": "TGI", "setting": "UO-31 renal", "value": "> 100", "unit": "µM"}, {"measurement": "GI50", "setting": "HS 578T breast", "value": 3.29, "unit": "µM"}, {"measurement": "TGI", "setting": "HS 578T breast", "value": 34.3, "unit": "µM"}, {"measurement": "GI50", "setting": "LOX IMVI melanoma", "value": 3.35, "unit": "µM"}, {"measurement": "TGI", "setting": "LOX IMVI melanoma", "value": 11, "unit": "µM"}]}
